Activity calls are given as the source filed them. The rule behind the calls is not given here.
Columns and labels:
D(2) dopamine receptor = D(2) dopamine receptor (Homo sapiens, UniProt P14416); experiment: Binding affinity towards cloned human Dopamine D2 receptor in CHO cells using [3H]spiperone as radioligand; format: cell-based
D(3) dopamine receptor = D(3) dopamine receptor (Homo sapiens, UniProt P35462); experiment: Binding affinity towards cloned human Dopamine D3 receptor in CHO cells using [3H]spiperone as radioligand; format: cell-based
Rattus norvegicus [1] = experiment: Inhibitory effect on exploratory locomotor activity in rats at a dose of 30 mg/kg after oral administration; no effect; format: functional, organism-based; design: dose 30 mg/kg
Rattus norvegicus [2] = experiment: Inhibitory effect on exploratory locomotor activity in rats after ip administration; format: functional
Mus musculus = experiment: Inhibitory effect on exploratory locomotor activity in mice after ip administration; format: functional

Chain of D(3) dopamine receptor (P35462 whole entry): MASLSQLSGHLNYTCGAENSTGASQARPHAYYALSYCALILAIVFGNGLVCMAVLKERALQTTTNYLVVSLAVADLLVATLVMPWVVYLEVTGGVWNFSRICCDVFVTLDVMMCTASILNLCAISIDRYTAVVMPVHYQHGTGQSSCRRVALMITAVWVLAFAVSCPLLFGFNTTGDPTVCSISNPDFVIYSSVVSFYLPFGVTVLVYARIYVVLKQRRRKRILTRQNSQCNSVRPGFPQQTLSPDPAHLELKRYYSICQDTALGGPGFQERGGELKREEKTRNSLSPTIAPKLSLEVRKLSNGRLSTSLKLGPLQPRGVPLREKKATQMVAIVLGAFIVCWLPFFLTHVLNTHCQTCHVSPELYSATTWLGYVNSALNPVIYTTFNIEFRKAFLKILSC
Chain of D(2) dopamine receptor (P14416 whole entry): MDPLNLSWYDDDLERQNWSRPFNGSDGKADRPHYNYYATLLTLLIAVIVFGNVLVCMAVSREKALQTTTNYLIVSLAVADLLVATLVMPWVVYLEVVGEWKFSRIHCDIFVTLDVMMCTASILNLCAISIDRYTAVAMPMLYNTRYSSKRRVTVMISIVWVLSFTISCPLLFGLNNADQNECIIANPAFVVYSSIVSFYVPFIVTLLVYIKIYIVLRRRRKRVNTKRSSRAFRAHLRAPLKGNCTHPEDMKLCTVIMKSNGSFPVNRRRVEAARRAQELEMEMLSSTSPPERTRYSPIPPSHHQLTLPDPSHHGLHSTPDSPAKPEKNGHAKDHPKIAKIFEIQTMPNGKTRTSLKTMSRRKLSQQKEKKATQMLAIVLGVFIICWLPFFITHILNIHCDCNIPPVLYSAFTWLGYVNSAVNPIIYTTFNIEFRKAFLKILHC

SMILES | Ki (D(2) dopamine receptor) [nM] | Ki (D(3) dopamine receptor) [nM] | ED50 (Rattus norvegicus [1]) | ED50 (Rattus norvegicus [2]) [mg/kg] | ED50 (Mus musculus) [mg/kg]
Clc1cccc(N2CCN(CCCOc3ccc(-c4nc5ccccc5[nH]4)cc3)CC2)c1 | 1400 | 155 |  |  | 
COc1ccc(N2CCN(CCCOc3ccc(-c4nc5ccccc5[nH]4)cc3)CC2)cc1 | 293 | 130 |  |  | 
c1ccc(N2CCN(CCCOc3ccc(-c4nc5ccccc5[nH]4)cc3)CC2)nc1 | 70 |  |  |  | 
Clc1ccccc1N1CCN(CCCOc2ccc(-c3nc4ccccc4[nH]3)cc2)CC1 | 126 | 18 |  |  | 
CN1CCN(CCCOc2ccc(-c3nc4ccccc4[nH]3)cc2)CC1 | > 3330 | 2000 |  |  | 
c1cnc(N2CCN(CCCOc3ccc(-c4nc5ccccc5[nH]4)cc3)CC2)nc1 | 269 |  |  |  | 
c1ccc(N2CCN(CCCOc3ccc(-c4nc5ccccc5[nH]4)cc3)CC2)cc1 | 406 | 1.5 | inactive | 7.1 | 2.3
Clc1ccc(N2CCN(CCCOc3ccc(-c4nc5ccccc5[nH]4)cc3)CC2)cc1 | 865 | 27 |  |  | 
COc1ccccc1N1CCN(CCCOc2ccc(-c3nc4ccccc4[nH]3)cc2)CC1 | 8.8 | 1.7 |  |  | 
CCCSc1ccccc1N1CCN(CCCOc2ccc(-c3nc4ccccc4[nH]3)cc2)CC1 | 8 |  |  |  | 

— ChEMBL document CHEMBL1149936, “Discovery of selective dopamine D3 ligands: II. 2-[4-[3-(4-aryl-1-piperazinyl)propoxy]phenyl]benzimidazole partial agonists” (Bioorg Med Chem Lett, 1995)
